± gives the standard deviation of the averaged measurements.

Compound in one experiment: Nc1nc2[nH]cnc2c(=S)[nH]1 [TIOGUANINE]
As to the kind of experiment: surviving fraction relative to DMSO-only wells; higher = less growth inhibition. To be noted: exposure time: 5 days. Put shortly: (§1)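 At 250–500 cells per well in 384-well plates, log-phase tumour cell lines were seeded and, 24 hours on, exposed continuously for five days to inhibitors at 0.5, 1, 5, 10, 50, 100, 500 and 1000 nM. Viability readout was CellTiter-Glo luminescence, reported as surviving fraction normalised to the median of DMSO-only wells.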

Compound in another experiment: CCCCCCCCCCCCCCCC(=O)Nc1ccn([C@@H]2O[C@H](CO)[C@@H](O)[C@@H]2C#N)c(=O)n1 [SAPACITABINE]
Described as above. To be noted: exposure time: 5 days. Put shortly:
as §1

With HCC202 BREAST, the surviving fraction in the experiment with TIOGUANINE (0.5 nM) stood at 1.28 ± 0.11; with TIOGUANINE (1 nM), 1.25 ± 0.14; in the experiment with TIOGUANINE (5 nM), 1.32 ± 0.35; in the experiment with TIOGUANINE (10 nM) it was 1.3 ± 0.28; in the experiment with TIOGUANINE (50 nM), 1.32 ± 0.14; with TIOGUANINE (100 nM), 1.78 ± 0.35. Further, the surviving fraction amounted to 1.2 ± 0.19 with TIOGUANINE (500 nM); 1.24 ± 0.067 with TIOGUANINE (1000 nM); 0.86 ± 0.17 with SAPACITABINE (0.5 nM); 0.93 ± 0.091 with SAPACITABINE (1 nM); 1.04 ± 0.38 with SAPACITABINE (5 nM); 0.761 ± 0.21 with SAPACITABINE (10 nM). The surviving fraction was found to be 1.08 ± 0.37 in the experiment with SAPACITABINE (50 nM), 0.904 ± 0.0085 with SAPACITABINE (100 nM), 0.911 ± 0.15 in the experiment with SAPACITABINE (500 nM) and 0.851 ± 0.048 in the experiment with SAPACITABINE (1000 nM).
On to HCC1395 BREAST, for which the surviving fraction with TIOGUANINE (0.5 nM) turned out to be 0.999 ± 0.06; in the experiment with TIOGUANINE (1 nM) it was 1.12 ± 0.064; in the experiment with TIOGUANINE (5 nM) it was 0.968 ± 0.1; in the experiment with TIOGUANINE (10 nM), 1.11 ± 0.054; with TIOGUANINE (50 nM) it was 1.05 ± 0.039; with TIOGUANINE (100 nM) it was 1.16 ± 0.04. In addition, the surviving fraction came to 1.11 ± 0.086 with TIOGUANINE (500 nM); 1.09 ± 0.081 with TIOGUANINE (1000 nM); 0.861 ± 0.028 with SAPACITABINE (0.5 nM); 0.828 ± 0.045 with SAPACITABINE (1 nM); 0.949 ± 0.035 with SAPACITABINE (5 nM); 0.877 ± 0.04 in the experiment with SAPACITABINE (10 nM). In addition, the surviving fraction with SAPACITABINE (50 nM) turned out to be 0.935 ± 0.14; with SAPACITABINE (100 nM), 0.889 ± 0.028; with SAPACITABINE (500 nM) it was 0.808 ± 0.16; in the experiment with SAPACITABINE (1000 nM), 0.715 ± 0.15.
For HCC1806 BREAST, the surviving fraction was 0.989 ± 0.061 with TIOGUANINE (0.5 nM); 1.1 ± 0.059 with TIOGUANINE (1 nM); 1.08 ± 0.11 with TIOGUANINE (5 nM); 1.08 ± 0.12 with TIOGUANINE (10 nM); 1.13 ± 0.15 with TIOGUANINE (50 nM); 1.13 ± 0.19 with TIOGUANINE (100 nM). Further, the surviving fraction in the experiment with TIOGUANINE (500 nM) worked out at 1.03 ± 0.12; with TIOGUANINE (1000 nM) it was 0.952 ± 0.061; with SAPACITABINE (0.5 nM) it was 0.698 ± 0.06; in the experiment with SAPACITABINE (1 nM) it was 0.673 ± 0.062; with SAPACITABINE (5 nM), 0.652 ± 0.048; in the experiment with SAPACITABINE (10 nM), 0.462 ± 0.067. The surviving fraction worked out at 0.259 ± 0.028 with SAPACITABINE (50 nM), 0.167 ± 0.0089 with SAPACITABINE (100 nM), 0.0637 ± 0.0081 with SAPACITABINE (500 nM) and 0.061 ± 0.007 in the experiment with SAPACITABINE (1000 nM).
On to HCC1954 BREAST, for which the surviving fraction in the experiment with TIOGUANINE (0.5 nM) turned out to be 0.867 ± 0.18; in the experiment with TIOGUANINE (1 nM) it was 0.986 ± 0.24; with TIOGUANINE (5 nM), 1.08 ± 0.075; with TIOGUANINE (10 nM), 0.96 ± 0.1; with TIOGUANINE (50 nM), 0.997 ± 0.18; with TIOGUANINE (100 nM), 0.911 ± 0.05. The surviving fraction was 0.969 ± 0.054 in the experiment with TIOGUANINE (500 nM); 0.871 ± 0.051 in the experiment with TIOGUANINE (1000 nM); 0.436 ± 0.047 with SAPACITABINE (0.5 nM); 0.437 ± 0.016 in the experiment with SAPACITABINE (1 nM); 0.445 ± 0.058 with SAPACITABINE (5 nM); 0.559 ± 0.1 in the experiment with SAPACITABINE (10 nM). Moreover, the surviving fraction with SAPACITABINE (50 nM) turned out to be 0.464 ± 0.037; with SAPACITABINE (100 nM), 0.371 ± 0.014; in the experiment with SAPACITABINE (500 nM), 0.425 ± 0.0067; with SAPACITABINE (1000 nM) it was 0.343 ± 0.035.
With HMLE3 BREAST, the surviving fraction with TIOGUANINE (0.5 nM) is 0.914 ± 0.068; with TIOGUANINE (1 nM) it was 0.902 ± 0.015; in the experiment with TIOGUANINE (5 nM), 0.95 ± 0.028; with TIOGUANINE (10 nM) it was 0.974 ± 0.019; with TIOGUANINE (50 nM), 0.97 ± 0.1; with TIOGUANINE (100 nM), 0.945 ± 0.072. In addition, the surviving fraction with TIOGUANINE (500 nM) amounted to 0.905 ± 0.049; with TIOGUANINE (1000 nM), 0.851 ± 0.09; with SAPACITABINE (0.5 nM) it was 0.846 ± 0.045; with SAPACITABINE (1 nM), 0.738 ± 0.037; with SAPACITABINE (5 nM), 0.898 ± 0.017; with SAPACITABINE (10 nM) it was 0.244 ± 0.014. The surviving fraction with SAPACITABINE (50 nM) was determined as 0.892 ± 0.095; with SAPACITABINE (100 nM), 0.67 ± 0.11; with SAPACITABINE (500 nM), 0.344 ± 0.039; in the experiment with SAPACITABINE (1000 nM) it was 0.175 ± 0.0071.

(Values after the supplement of paper PMC6045584.)
